From US20230348424A1, “HETEROCYCLIC COMPOUNDS AND METHODS OF USE” (Schrödinger, Inc., priority 2022, published 2023)

Target: SOS1:KRAS (G12C) interaction (Homo sapiens (Human), UniProt Q07889)
Assay: SOS1 KRas(G12C) FRET Assay
Type: binding
Details: 0.5 nM His10-SOS1 (res. 564-1049), 2.5 nM GST-KRAS G12C (res. 1-169), 2 hrs at RT
Protocol: Inhibition of the SOS 1:KRAS interaction was measured using purified GST-tagged KRAS (res. 1-169, G12C, purified based on Hillig, et al., Proc Natl Acad Sci USA (2019); 116(7):2551-2560) and recombinant His10-SOS1 (res. 564-1049; purified based on Hillig, et al.). The final assay was performed at 20 uL with 0.5 nM SOS1 protein and 2.5 nM KRAS protein in a buffer of PBS, 0.1% BSA, 5 mM MgCh, 0.0025% Igepal, 100 mM KF, 5 mM DTT in a white 384 square well OptiPlate (PerkinElmer, Cat. 6007290). A 2x KRAS working solution was prepared in an assay buffer containing 5 nM GST-KRAS G12C and 2 nM anti-GST-Eu(K) (Cisbio, Cat. 61GSTKLA) and pre-incubated for 15 minutes at 25° C. […] The final DMSO concentration is 0.5%. Plates were incubated at RT for 2 hrs before the FRET signal was measured using Envision at emission 665 nm and 615 nm. FRET signal was converted to percentage of protein-protein interaction using the following equation:
• C: signal with compound treatment • P: signal for positive control (DMSO) • N: signal for negative control (no SOS1 added)
IC50 and Hill coefficients were obtained using Graph Pad Prism (Graph Pad software, Inc, USA) with non-linear regression analysis.

SOS1:KRAS (G12C) interaction, sequence (Q07889 564-1049, stated change not applied): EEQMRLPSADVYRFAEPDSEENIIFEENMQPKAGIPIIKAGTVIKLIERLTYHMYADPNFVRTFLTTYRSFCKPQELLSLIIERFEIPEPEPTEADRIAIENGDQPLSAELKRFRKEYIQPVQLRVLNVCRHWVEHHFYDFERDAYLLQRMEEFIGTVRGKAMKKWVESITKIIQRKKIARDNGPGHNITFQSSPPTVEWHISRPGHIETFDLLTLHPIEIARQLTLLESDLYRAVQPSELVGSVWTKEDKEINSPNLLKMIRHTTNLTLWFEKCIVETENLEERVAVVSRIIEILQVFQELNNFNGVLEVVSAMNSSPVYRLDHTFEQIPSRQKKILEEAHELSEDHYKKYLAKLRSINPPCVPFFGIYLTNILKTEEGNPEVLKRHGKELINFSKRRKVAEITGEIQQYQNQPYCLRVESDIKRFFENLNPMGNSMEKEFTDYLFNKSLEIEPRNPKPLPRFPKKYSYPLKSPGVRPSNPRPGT

Row | SMILES | IC50 [nM]
1 | C[C@@H](NC(=O)c1cn(C2(C(F)(F)F)CCC2)c(=O)cc1NC1CCN(C)CC1)c1cccc(C(F)F)c1F [Example 225, (R)-N-(1-(3-(difluoromethyl)-2-fluorophenyl)ethyl)-4-((1-methylpiperidin-4-yl)amino)-6-oxo-1-(1-(trifluoromethyl)cyclobutyl)-1,6-dihydropyridine-3-carboxamide] | 13.9
2 | C[C@@H](NC(=O)c1cn([C@H]2CCOC(C)(C)C2)c(=O)cc1NC1CCN(C)CC1)c1cccc(C(F)F)c1F (single isomer, unassigned) [Example 308] | 17.9
3 | C[C@@H](NC(=O)c1cn(C23COC(C)(C2)C3)c(=O)cc1NC1CCN(C)CC1)c1cccc(C(F)F)c1F [Example 220, (R)-N-(1-(3-(difluoromethyl)-2-fluorophenyl)ethyl)-1-(1-methyl-2-oxabicyclo[2.1. 1]hexan-4-yl)-4-((1-methylpiperidin-4-yl)amino)-6-oxo-1,6-dihydropyridine-3-carboxamide] | 26.8
4 | C[C@@H](NC(=O)c1cn(C2(C(F)F)CC2)c(=O)cc1N[C@H]1[C@@H]2CN(C)C[C@@H]21)c1cccc(C(F)(F)c2ccncc2)c1F [Example 174, N-((R)-1-(3-(difluoro(pyridin-4-yl)methyl)-2-fluorophenyl)ethyl)-1-(1-(difluoromethyl)cyclopropyl)-4-(((1R,5S,6s)-3-methyl-3-azabicyclo[3.1.0]hexan-6-yl)amino)-6-oxo-1,6-dihydropyridine-3-carboxamide] | 1180
5 | Cc1c([C@@H](C)NC(=O)c2cn(C3CCOCC3)c(=O)cc2NC2CCN(CC(F)(F)F)CC2)cccc1C(F)(F)F [Example 15, (R)-N-(1-(2-methyl-3-(trifluoromethyl)phenyl)ethyl)-6-oxo-1-(tetrahydro-2H-pyran-4-yl)-4-((1-(2,2,2-trifluoroethyl)piperidin-4-yl)amino)-1,6-dihydropyridine-3-carboxamide] | 847
6 | Cc1c([C@@H](C)NC(=O)c2cn(C3CCOCC3)c(=O)c(Br)c2NC2CCN(C)CC2)cccc1C(F)(F)F [Example 17, (R)-5-bromo-N-(1-(2-methyl-3-(trifluoromethyl)phenyl)ethyl)-4-((1-methylpiperidin-4-yl)amino)-6-oxo-1-(tetrahydro-2H-pyran-4-yl)-1,6-dihydropyridine-3-carboxamide] | 717
7 | C[C@@H](NC(=O)c1cn(C2(C(F)F)CC2)c(=O)cc1N[C@H]1[C@@H]2CC[C@H]1CN(C)C2)c1cccc(C(F)F)c1F [Example 293, N-((R)-1-(3-(difluoromethyl)-2-fluorophenyl)ethyl)-1-(1-(difluoromethyl)cyclopropyl)-4-(((1R,5S,8r)-3-(methyl-d3)-3-azabicyclo[3.2.1]octan-8-yl)amino)-6-oxo-1,6-dihydropyridine-3-carboxamide] | 19.2
8 | C[C@@H](NC(=O)c1cn(C23CC(C2)C3)c(=O)cc1N[C@H]1CCN(C)C[C@H]1F)c1cccc(C(F)F)c1F (single isomer, unassigned) [Example 203] | 4.6
9 | C[C@@H](NC(=O)c1cn(C2(C(F)F)CC2)c(=O)cc1NC1CCN(C2CC2)CC1)c1cccc(C(F)F)c1F [Example 62, (R)-4-((1-cyclopropylpiperidin-4-yl)amino)-N-(1-(3-(difluoromethyl)-2-fluorophenyl)ethyl)-1-(1-(difluoromethyl)cyclopropyl)-6-oxo-1,6-dihydropyridine-3-carboxamide] | 20.1
10 | C[C@@H](NC(=O)c1cn(C2(C(F)F)CC2)c(=O)cc1N[C@@H]1CCN(C)C[C@@H]1F)c1cccc(C(F)F)c1F (single isomer, unassigned) [Example 67] | 10.6
11 | C[C@@H](NC(=O)c1cn([C@@H]2CC2(F)F)c(=O)cc1N[C@H]1[C@@H]2CN(C)C[C@@H]21)c1cccc(C(C)(F)F)c1F (single isomer, unassigned) [Example 201] | 14
